Laboratory results: patent US12122761B2, “2-azaspiro[3.4]octane derivatives as M4 agonists” (NOVARTIS AG, priority 2019, dated 2024)
Like-named read-outs stand apart in the source and are kept apart here.

Columns and labels:
Assay type in all cases: cell-based
[1] = target: T1, human cloned CHRM2 receptor (M2_CHO cells) (Homo sapiens, UniProt P08172); assay: CHRM2 Ca++ Flux Assay (agonist mode, FDSS 7000EX); settings: for EC50: agonist mode, geometric mean if tested more than once, read-out: M2 FDSS EC50
T1 construct: expressed in transfected cells; host or cells: CHO-K1
T1 sequence (P08172 1-466): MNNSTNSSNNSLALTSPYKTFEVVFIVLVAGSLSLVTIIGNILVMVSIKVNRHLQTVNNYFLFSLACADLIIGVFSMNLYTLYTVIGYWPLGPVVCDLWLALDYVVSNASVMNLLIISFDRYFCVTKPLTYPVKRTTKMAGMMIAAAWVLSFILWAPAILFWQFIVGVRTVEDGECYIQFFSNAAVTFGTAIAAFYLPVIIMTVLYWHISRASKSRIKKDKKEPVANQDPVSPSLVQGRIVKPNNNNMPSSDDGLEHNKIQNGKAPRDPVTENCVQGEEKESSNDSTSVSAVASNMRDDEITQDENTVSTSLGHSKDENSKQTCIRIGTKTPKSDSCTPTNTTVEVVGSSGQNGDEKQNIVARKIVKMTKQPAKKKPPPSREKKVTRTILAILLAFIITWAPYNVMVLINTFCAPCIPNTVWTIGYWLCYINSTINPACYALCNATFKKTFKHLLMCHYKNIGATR
Method: (§1) The above examples were characterized by measuring the intracellular mobilization of Ca++ ions caused by signaling events mediated by the receptor. The Intra-cellular Calcium flux levels were captured by the highly sensitive Ca++ indicator, Calcium Assay Kit (BD Biosciences, Catalog Number 640178). The fluorescent activity from all receptors were monitored by the fluorescent imager, FDSS 7000EX (Hamamatsu) over a span of 3 minutes.
(§2) CHO-K1 cells stably expressing the human cloned CHRM2 receptor (M2_CHO cells) were grown and maintained in a monolayer culture with F12/HAM (Life Technologies) supplemented with 10% Fetal Bovine Serum, 1× Pen-Strep, and 0.4 mg/mL Geneticin in a humidified atmosphere (5% CO2) at 37° C. The cultures were grown to 80-9 0% confluency in T150 flasks (Corning) and washed with 1×DPBS and lifted with 0.05% Trypsin (Life Technologies). The cells were then spun (1K rpm, 3 minutes) and frozen using Recovery Cell Culture Freezing Media (Gibco Technologies). Cells were stored in liquid nitrogen and thawed a day before the assay.
Prior to the day of the assay, stable M2 CHO cells were thawed and plated on Greiner 384 well TC treated plate at a density of 12K cells/well and kept overnight in a humidified atmosphere (5% CO2) at 37° C. The following day, the cells were loaded with Ca^++ dye (BD Biosciences) using Loading Buffer (HBSS +Ca/+Mg, 20 mM HEPES, 2.5 mM Probenecid) and placed back in cell incubator for a minimum of 1 hour and maximum of 2 hours. After incubation, the dye was replaced with Assay Buffer (HBSS −Ca/−Mg, 20 mM HEPES, 2.5 mM Probenecid) supplemented with 20 μM ATP (Sigma Aldrich) and kept at room temperature for 60 minutes prior before running on cell imager. The FDSS 7000EX (Hamamatsu) was used to acquire Ca^++ traces from cells in response to compound treatment and the data was used to generate dose response curves in agonist mode. All compounds were serially diluted in DMSO then prepared in Assay Buffer for Ca^++ flux studies. The dose response curves were generated from the average of triplicate wells obtained from each data point and used a non-linear regression of four parameter dose response algorithm. The Percent Activity (PA) was measured to EC100 of Carbachol.

[2] = target: T2, human cloned CHRM3 receptor (M3_CHO cells) (Homo sapiens, UniProt P20309); assay: CHRM3 Ca++ Flux Assay (agonist mode, FDSS 7000EX); settings: for EC50: agonist mode, geometric mean if tested more than once, read-out: M3 FDSS EC50
T2 construct: expressed in transfected cells; host or cells: CHO-K1
Method: as §1
as §2, with “CHRM3” for “CHRM2”, “(M3_CHO” for “(M2_CHO”, “assay. A similar procedure was used for cells stably expressing the human cloned CHRM5 receptor (M5_CHO).” for “assay.”
(§3) Prior to the day of the assay, stable M3_CHO or M5_CHO cells were thawed and plated on Greiner 384 well black TC treated plates at 12K cells/well in F12/DMEM supplemented with 10% FBS (Hyclone) and kept overnight in a humidified atmosphere (5% CO2) at 37° C. The next day, cells were loaded with Ca^++ dye (BD Biosciences) using Loading Buffer (HBSS +Ca/+Mg, 20 mM HEPES, 2.5 mM Probenecid) and placed back in cell incubator for a minimum of 1 hour. After incubation, the dye was replaced with Assay Buffer (HBSS −Ca/−Mg, 20 mM HEPES, 2.5 mM Probenecid) and kept at room temperature in the dark before running on cell imager. The FDSS 7000EX (Hamamatsu) was used to acquire Ca^++ traces from cells treated with 11 point dose response of compounds in triplicate in order to generate dose response curves in agonist mode. All compounds were serially diluted in DMSO then prepared in Assay Buffer for Ca^++ flux studies. The dose response curves were generated from the average of triplicate wells obtained from each data point and used a non-linear regression of four parameter dose response algorithm. The Percent Activity (PA) was measured to EC100 of Carbachol.

[3] = target: T3, human cloned CHRM5 receptor (M5_CHO) (Homo sapiens, UniProt P08912); assay: CHRM5 Ca++ Flux Assay (agonist mode, FDSS 7000EX); settings: for EC50: agonist mode, geometric mean if tested more than once, read-out: M5 FDSS EC50
T3 construct: expressed in transfected cells; host or cells: CHO (M5_CHO)
T3 sequence (P08912 1-532): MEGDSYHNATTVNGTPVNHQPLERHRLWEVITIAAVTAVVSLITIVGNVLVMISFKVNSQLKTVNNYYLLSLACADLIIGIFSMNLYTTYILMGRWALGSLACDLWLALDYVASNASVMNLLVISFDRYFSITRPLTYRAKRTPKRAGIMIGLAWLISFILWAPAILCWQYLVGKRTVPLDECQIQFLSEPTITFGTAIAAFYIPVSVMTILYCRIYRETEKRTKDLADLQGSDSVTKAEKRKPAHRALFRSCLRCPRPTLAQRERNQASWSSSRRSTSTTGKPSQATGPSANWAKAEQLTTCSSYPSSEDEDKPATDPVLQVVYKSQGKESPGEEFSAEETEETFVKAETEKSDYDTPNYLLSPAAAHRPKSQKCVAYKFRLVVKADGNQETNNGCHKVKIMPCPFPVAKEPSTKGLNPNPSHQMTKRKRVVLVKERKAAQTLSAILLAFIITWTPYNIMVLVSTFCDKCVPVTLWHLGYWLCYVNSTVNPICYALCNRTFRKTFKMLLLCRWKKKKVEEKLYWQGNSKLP
Method: as §1
as §2, with “CHRM3” for “CHRM2”, “(M3_CHO” for “(M2_CHO”, “assay. A similar procedure was used for cells stably expressing the human cloned CHRM5 receptor (M5_CHO).” for “assay.”
as §3

[4] = Percent Activity measured to EC100 of Carbachol
[5] = Percent Activity measured to EC100 of Carbachol, citrate salt

T2 sequence (P20309 whole entry): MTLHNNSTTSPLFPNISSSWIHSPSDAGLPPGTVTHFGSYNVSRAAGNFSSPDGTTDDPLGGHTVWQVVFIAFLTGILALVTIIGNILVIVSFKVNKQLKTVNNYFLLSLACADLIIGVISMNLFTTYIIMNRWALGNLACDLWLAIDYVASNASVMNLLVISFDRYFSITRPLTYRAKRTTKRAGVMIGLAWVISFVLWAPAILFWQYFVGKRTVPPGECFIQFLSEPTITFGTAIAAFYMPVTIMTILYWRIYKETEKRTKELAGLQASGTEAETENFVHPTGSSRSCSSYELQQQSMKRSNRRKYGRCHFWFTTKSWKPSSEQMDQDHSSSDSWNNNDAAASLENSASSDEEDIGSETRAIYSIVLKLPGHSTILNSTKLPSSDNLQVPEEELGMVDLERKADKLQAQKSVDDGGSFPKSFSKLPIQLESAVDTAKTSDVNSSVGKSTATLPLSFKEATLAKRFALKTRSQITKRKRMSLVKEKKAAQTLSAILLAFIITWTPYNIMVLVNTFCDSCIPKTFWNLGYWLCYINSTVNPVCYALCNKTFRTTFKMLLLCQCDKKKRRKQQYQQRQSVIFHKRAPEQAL

Compound | M2 FDSS PA [1, 4] | M3 FDSS PA [2, 4] | EC50 [2] | M5 FDSS PA [3, 4] | EC50 [3] | Emax ([1]; Percent Activity measured to EC100 of Carbachol, read-out: M2 FDSS PA) | Emax ([2]; Percent Activity measured to EC100 of Carbachol, read-out: M3 FDSS PA) | Emax ([3]; Percent Activity measured to EC100 of Carbachol, read-out: M5 FDSS PA) | EC50 [1] | M2 FDSS PA [1, 5] | EC50 ([1]; citrate salt) | M5 FDSS PA [3, 5] | EC50 ([3]; citrate salt)
O=C(N1CC2(CC[C@@H](N3CCC(c4cc(F)ccc4OC4CCOCC4)CC3)C2)C1)C1(F)CC1 (single isomer, unassigned) [Example 9D, (R)-(6-(4-(5-fluoro-2-((tetrahydro-2H-pyran-4-yl)oxy)phenyl)piperidin-1-yl)-2-azaspiro[3.4]octan-2-yl)(1-fluorocyclopropyl)methanone or (S)-(6-(4-(5-fluoro-2-((tetrahydro-2H-pyran-4-yl)oxy)phenyl)piperidin-1-yl)-2-azaspiro[3.4]octan-2-yl)(1-fluorocyclopropyl)methanone] | 0% | 0% | > 25 µM | 0% | > 25 µM | – | – | – | < 26 µM | – | – | – | –
FC(F)(F)Oc1ccccc1C1CCN([C@@H]2CCC3(C2)CN(c2nncs2)C3)CC1 (single isomer, unassigned) [Example 10M, (R)-2-(6-(4-(2-(trifluoromethoxy)phenyl)piperidin-1-yl)-2-azaspiro[3.4]octan-2-yl)-1,3,4-thiadiazole or (S)-2-(6-(4-(2-(trifluoromethoxy)phenyl)piperidin-1-yl)-2-azaspiro[3.4]octan-2-yl)-1,3,4-thiadiazole] | 0% | 0% | > 25 µM | 0% | > 25 µM | – | – | – | > 25 µM | – | – | – | –
O=C(C1COC1)N1CC2(CC[C@H](N3CCC(c4ccccc4OC(F)F)CC3)C2)C1.O=C(O)CC(O)(CC(=O)O)C(=O)O (single isomer, unassigned) [Example 8E, (S)-(6-(4-(2-(difluoromethoxy)phenyl)piperidin-1-yl)-2-azaspiro[3.4]octan-2-yl)(oxetan-3-yl)methanone or (R)-(6-(4-(2-(difluoromethoxy)phenyl)piperidin-1-yl)-2-azaspiro[3.4]octan-2-yl)(oxetan-3-yl)methanone citrate salt] | – | – | – | – | – | – | – | – | – | 26% | 0.096 µM | 1% | 2.16 µM
Cc1nc(COc2ccccc2C2CCN([C@@H]3CCC4(C3)CN(C(=O)C3(F)CC3)C4)CC2)no1 (single isomer, unassigned) [Example 7Z, (R)-(1-fluorocyclopropyl)(6-(4-(2-((5-methyl-1,2,4-oxadiazol-3-yl)methoxy)phenyl)piperidin-1-yl)-2-azaspiro[3.4]octan-2-yl)methanone or (S)-(1-fluorocyclopropyl)(6-(4-(2-((5-methyl-1,2,4-oxadiazol-3-yl)methoxy)phenyl)piperidin-1-yl)-2-azaspiro[3.4]octan-2-yl)methanone] | 0% | 0% | > 25 µM | 0% | > 25 µM | – | – | – | – | – | – | – | –
O=C(C1COC1)N1CC2(CC[C@H](N3CCC(c4ccccc4OC(F)F)CC3)C2)C1.O=C(O)CC(O)(CC(=O)O)C(=O)O (single isomer, unassigned) [Example 8F, (S)-(6-(4-(2-(difluoromethoxy)phenyl)piperidin-1-yl)-2-azaspiro[3.4]octan-2-yl)(oxetan-3-yl)methanone or (R)-(6-(4-(2-(difluoromethoxy)phenyl)piperidin-1-yl)-2-azaspiro[3.4]octan-2-yl)(oxetan-3-yl)methanone citrate salt] | – | – | – | – | – | – | – | – | – | 0% | – | 0% | > 25 µM

Now from value to compound, other results behind:

M2 FDSS PA [1, 4] | M3 FDSS PA [2, 4] | EC50 [2] | M5 FDSS PA [3, 4] | EC50 [3] | Emax ([1]; Percent Activity measured to EC100 of Carbachol, read-out: M2 FDSS PA) | Emax ([2]; Percent Activity measured to EC100 of Carbachol, read-out: M3 FDSS PA) | Emax ([3]; Percent Activity measured to EC100 of Carbachol, read-out: M5 FDSS PA) | EC50 [1] | Compound | M2 FDSS PA [1, 5] | EC50 ([1]; citrate salt) | M5 FDSS PA [3, 5] | EC50 ([3]; citrate salt)
0% | 0% | > 25 µM | 0% | > 25 µM | – | – | – | – | Cc1nnc(COc2ccccc2C2CCN([C@@H]3CCC4(C3)CN(C(=O)C3(F)CC3)C4)CC2)o1 (single isomer, unassigned) [Example 7Y, (R)-(1-fluorocyclopropyl)(6-(4-(2-((5-methyl-1,3,4-oxadiazol-2-yl)methoxy)phenyl)piperidin-1-yl)-2-azaspiro[3.4]octan-2-yl)methanone or (S)-(1-fluorocyclopropyl)(6-(4-(2-((5-methyl-1,3,4-oxadiazol-2-yl)methoxy)phenyl)piperidin-1-yl)-2-azaspiro[3.4]octan-2-yl)methanone] | – | – | – | –
– | – | > 25 µM | – | > 25 µM | 18% | 0% | 0% | – | COc1ccccc1C1CCN([C@@H]2CCC3(C2)CN(c2cccnc2)C3)CC1 [Example 5K, (R)-6-(4-(2-methoxyphenyl)piperidin-1-yl)-2-(pyridin-3-yl)-2-azaspiro[3.4]octane] | – | – | – | –
0% | 0% | > 25 µM | 0% | > 25 µM | – | – | – | – | O=C(N1CC2(CC[C@@H](N3CCC(c4ccccc4C4(O)CCOCC4)CC3)C2)C1)C1(F)CC1 (single isomer, unassigned) [Example 9H, (R)-(1-fluorocyclopropyl)(6-(4-(2-(4-hydroxytetrahydro-2H-pyran-4-yl)phenyl)piperidin-1-yl)-2-azaspiro[3.4]octan-2-yl)methanone or (S)-(1-fluorocyclopropyl)(6-(4-(2-(4-hydroxytetrahydro-2H-pyran-4-yl)phenyl)piperidin-1-yl)-2-azaspiro[3.4]octan-2-yl)methanone] | – | – | – | –
